Source: patent US10793567B2, “Bicyclic inhibitors of histone deacetylase” (Rodin Therapeutics, Inc., priority 2017, dated 2020)

Key:
HDAC1 = HDAC1 (Homo sapiens (Human), UniProt Q13547); assay: HDAC1 enzymatic assay (Caliper LabChip, peptide deacetylation); type: biochemical; settings: 17 hours, 25° C.
Description: (§1) The following describes an assay protocol for measuring the deacetylation of a peptide substrate by the enzymes HDAC2 or HDAC1. Enzyme, substrate, and cofactors are combined in a well of a microtiter plate and incubated for […] at 25° C. At the end of the incubation, the reaction is quenched by the addition of an SDS-containing buffer. Substrate and product are separated and quantified electrophoretically using the microfluidic-based LabChip 3000 Drug Discovery System from Caliper Life Sciences. The peptide substrate used in this assay is FAM-TSRHK(AC)KL-CONH2 (FAM is carboxyfluorescein). Peptide should be >98% purity by Capillary Electrophoresis. • 1. To a well of a 384-well plate, add 5 μL of 2× enzyme buffer. Using Labcyte Echo 550, add 100 nl compound. Enzyme and compound may be pre-incubated at this time if desired. • 2. Add 5 μL of 2× substrate buffer. • 3. Incubate plate at 25° C. for 17 hours. • 4. Terminate reaction by adding 40 μL of 1.55× stop buffer. • 5. Create job on a Caliper LabChip® 3000 Drug Discovery System. • 6. Load the plate and start electrophoresis using blue laser (480 nm) for excitation and green CCD (520 nm) for detection (CCD2). Reaction time=17 hours; Reaction temperature=25° C.
1% DMSO (from compound) 1 μM FAM-TSRHK(AC)KL-CONH2 5 nM HDAC Enzyme (specific activity may vary from lot-to-lot, and enzyme concentration may need to be adjusted to yield˜10-20% conversion of substrate to product).
Substrate and product peptides present in each sample are separated electrophoretically using the LabChip 3000 capillary electrophoresis instrument. As substrate and product peptides are separated, two peaks of fluorescence are observed. Change in the relative fluorescence intensity of the substrate and product peaks is the parameter measured, reflecting enzyme activity. Capillary electrophoregramms (RDA acquisition files) are analyzed using HTS Well Analyzer software (Caliper Life Sciences). The […] in each sample is determined as the product to sum ratio (PSR): P/(S+P), where P is the peak height of the product peptide and S is the peak height of the substrate peptide. For each compound, enzyme activity is measured at various concentrations (12 concentrations of compound spaced by 3× dilution intervals). Negative control samples (0%-inhibition in the absence of inhibitor) and positive control samples (100%-inhibition, in the presence of 20 mM EDTA) are assembled in replicates of four and are used to calculate %-inhibition values for each compound at each concentration. Percent inhibition (Pinh) is determined using following equation: Pinh=(PSR0%−PSRinh)/(PSR0%−PSR100%)*100, where PSRinh is the product sum ratio in the presence of inhibitor, PSR0% is the average product sum ration in the absence of inhibitor and PSR100% is the average product sum ratio in 100%-inhibition control samples.
The IC50 values of inhibitors are determined by fitting the inhibition curves (Pinh versus inhibitor concentration) by 4 parameter sigmoidal dose-response model using XLfit 4 software (IBDS).
In the table, “A” indicates a […] of between 0.1 μM and 0.5 μM and “B” a Kd value of greater than 0.5 μM and less than or equal to 5.0 μM.

HDAC2 = HDAC2 (Homo sapiens (Human), UniProt Q92769); assay: HDAC2 enzymatic assay (Caliper LabChip, peptide deacetylation); type: biochemical; settings: 17 hours, 25° C.
HDAC2, sequence (Q92769 whole entry): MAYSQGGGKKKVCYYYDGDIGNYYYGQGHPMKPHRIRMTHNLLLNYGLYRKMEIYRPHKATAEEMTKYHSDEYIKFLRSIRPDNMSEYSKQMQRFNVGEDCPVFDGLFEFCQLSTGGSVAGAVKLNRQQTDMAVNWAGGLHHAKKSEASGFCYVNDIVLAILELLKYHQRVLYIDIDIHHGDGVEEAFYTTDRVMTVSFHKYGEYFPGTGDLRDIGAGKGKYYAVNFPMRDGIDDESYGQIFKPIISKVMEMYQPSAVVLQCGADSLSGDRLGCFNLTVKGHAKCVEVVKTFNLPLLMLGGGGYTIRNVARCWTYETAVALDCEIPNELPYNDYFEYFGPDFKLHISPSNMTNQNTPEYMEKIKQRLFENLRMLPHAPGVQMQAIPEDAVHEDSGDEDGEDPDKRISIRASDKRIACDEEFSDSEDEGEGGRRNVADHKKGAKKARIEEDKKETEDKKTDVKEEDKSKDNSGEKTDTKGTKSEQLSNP
Description: as §1, with “Load the plate and start electrophoresis using blue laser (480 nm) for excitation and green CCD (520 nm) for detection (CCD2). Reaction time=17 hours; Reaction temperature=25° C.” left out
Substrate and product peptides present in each sample are separated electrophoretically using the LabChip 3000 capillary electrophoresis instrument. As substrate and product peptides are separated, two peaks of fluorescence are observed. Change in the relative fluorescence intensity of the substrate and product peaks is the parameter measured, reflecting enzyme activity. Capillary electrophoregramms (RDA acquisition files) are analyzed using HTS Well Analyzer software (Caliper Life Sciences). The […] in each sample is determined as the product to sum ratio (PSR): P/(S+P), where P is the peak height of the product peptide and S is the peak height of the substrate peptide. For each compound, enzyme activity is measured at various concentrations (12 concentrations of compound spaced by 3× dilution intervals). […]
The IC50 values of inhibitors are determined by fitting the inhibition curves (Pinh versus inhibitor concentration) by 4 parameter sigmoidal dose-response model using XLfit 4 software (IBDS). […]

HDAC1, sequence (Q13547 whole entry): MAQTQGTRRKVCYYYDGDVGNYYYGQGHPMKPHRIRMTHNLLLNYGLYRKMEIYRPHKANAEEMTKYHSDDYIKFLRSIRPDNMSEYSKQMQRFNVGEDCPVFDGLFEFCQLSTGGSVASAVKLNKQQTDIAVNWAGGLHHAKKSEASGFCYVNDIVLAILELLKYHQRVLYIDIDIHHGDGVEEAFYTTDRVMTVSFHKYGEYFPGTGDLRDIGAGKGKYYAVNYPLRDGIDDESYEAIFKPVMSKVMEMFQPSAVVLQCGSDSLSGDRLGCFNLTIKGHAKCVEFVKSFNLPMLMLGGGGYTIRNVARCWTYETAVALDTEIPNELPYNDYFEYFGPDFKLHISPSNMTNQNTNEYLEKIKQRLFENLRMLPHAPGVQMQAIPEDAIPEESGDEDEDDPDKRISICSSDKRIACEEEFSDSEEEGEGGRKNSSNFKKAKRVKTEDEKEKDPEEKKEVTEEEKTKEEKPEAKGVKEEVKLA

| IC50 (HDAC1) [nM] | IC50 (HDAC2) [nM] | Compound |
| --- | --- | --- |
| 500 to 5000 |  | CCc1ncc2c(n1)CN(C(=O)Nc1nc(-c3cccs3)ccc1N)C2 [Compound 3] |
| 500 to 5000 |  | Cc1ncc(-c2ccc(N)c(NC(=O)N3Cc4cn(CC(F)F)nc4C3)n2)s1 [Compound 5] |
| 500 to 5000 |  | Cc1ncc2c(n1)CN(C(=O)Nc1nc(-c3ccc(F)cc3)ccc1N)C2 [Compound 14] |
| 500 to 5000 |  | COCCn1cc2c(n1)CN(C(=O)Nc1nc(-c3ccc(F)cc3F)ccc1N)C2 [Compound 9] |
| 500 to 5000 |  | Nc1ccc(-c2ccc(F)cc2)nc1NC(=O)N1Cc2cn(C3COC3)nc2C1 [Compound 1] |
| 500 to 5000 | 500 to 5000 | CCc1cc2c(cn1)CN(C(=O)Nc1nc(-c3cccnc3)ccc1N)C2 [Compound 8] |
| 500 to 5000 |  | Cc1ncc2c(n1)CN(C(=O)Nc1nc(-c3ccc(F)s3)ccc1N)C2 [Compound 2] |
| 500 to 5000 | 500 to 5000 | CCc1ncc2c(n1)CN(C(=O)Nc1nc(-c3ccc(F)cc3)ccc1N)C2 [Compound 17] |
